Experimental data taken from patent US20260035367A1 (Celgene Corporation, priority 2021, published 2026).
Where two headings read alike, the source gives them in different places.

Columns and labels:
[1] = biological target: T1, Recombinant human PKC-theta (His-tagged 362-706) (Homo sapiens, UniProt Q04759); test: PKC-theta inhibition assay (HTRF KinEASE kit); assay type: biochemical; conditions: ATP 6.5 μM, STK substrate 525 nM
T1 construct: Recombinant human PKC-theta (His-tagged 362-706); His
T1 sequence (Q04759 362-706): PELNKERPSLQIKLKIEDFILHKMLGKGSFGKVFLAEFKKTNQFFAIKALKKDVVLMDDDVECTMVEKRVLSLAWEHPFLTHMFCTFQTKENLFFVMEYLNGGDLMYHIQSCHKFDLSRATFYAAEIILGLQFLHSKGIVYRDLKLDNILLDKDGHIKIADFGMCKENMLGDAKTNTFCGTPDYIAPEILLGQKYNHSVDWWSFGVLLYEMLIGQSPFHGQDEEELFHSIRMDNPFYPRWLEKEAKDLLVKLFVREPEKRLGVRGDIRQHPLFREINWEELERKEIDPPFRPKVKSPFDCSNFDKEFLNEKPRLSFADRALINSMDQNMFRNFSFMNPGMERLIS
Procedure: PKC-theta and PKC-delta biochemical activities were measured using the PKC-theta HTRF KinEASEkit kit, according to manufacturer's instructions (Cisbio, catalogue number 61ST1PEJ). Briefly, the kinase buffer component of the kit was supplemented with 10 mM MgCl2, 1 mM DTT and 0.1% Tween 20. […] The streptavidin_XL665 and STK antibody-cryptate detection reagents were mixed according to the manufacturer's instructions. Test compounds were diluted in DMSO in a series of 10 semi-log step doses; 10 nL of each compound dose were dispensed in 384 well plates. […] The reaction was started by addition of the substrate and ATP and incubated at 25° C. for 30 minutes or 20 minutes for the PKC-theta and PKC-delta assays, respectively. The detection reagents were added, and the plate was incubated in the dark for 2 hours. […] The ratio of acceptor and donor emission signals was calculated for each well. Percent inhibition values were calculated from the HTRF ratios at different doses and fitted to a 4-parameter logistic curve to determine IC50 values (see Table 2).

[2] = system: IL-2 secretion by human effector memory T cells (TEM); test: Effector memory T cells IL-2 release assay (CD3/CD28 stimulation, HTRF IL-2 detection); assay type: cell-based; conditions: Homo sapiens, T-cell, 24 h
Procedure: Test compound-mediated inhibition of NFκB signalling in T cells was assessed by quantification of the IL-2 secretion by human effector memory T cells (TEM) upon treatment and stimulation. Human TEM cells were isolated from buffy coats of healthy donors obtained from the French blood bank.
Finally, 10 doses of test compound, originally prepared in DMSO by serial semi-log step dilution, were also added to cells in triplicate wells. Final DMSO concentration in wells was 0.1% in a total volume of 100 μL complete medium. Plates were incubated for 24 h at 37° C. in 5% CO2 atmosphere. After incubation, cell suspensions were centrifuged at 400×g and culture supernatants were recovered and stored at −80° C. […] IL-2 levels were determined in cell supernatants using an HTRF human IL-2 detection kit (Cisbio, cat #62HIL02PEH).

[3] = biological target: T2, Recombinant human PKC-delta (His-tagged 345-676) (Homo sapiens, UniProt Q05655); test: PKC-delta inhibition assay (HTRF KinEASE kit); assay type: biochemical; conditions: ratio, PKC-theta vs PKC-delta HTRF; for PKC-theta/PKC-delta selectivity (binned): binned A to G
T2 construct: PKC-delta (His-tagged 345-676); His
T2 sequence (Q05655 345-676): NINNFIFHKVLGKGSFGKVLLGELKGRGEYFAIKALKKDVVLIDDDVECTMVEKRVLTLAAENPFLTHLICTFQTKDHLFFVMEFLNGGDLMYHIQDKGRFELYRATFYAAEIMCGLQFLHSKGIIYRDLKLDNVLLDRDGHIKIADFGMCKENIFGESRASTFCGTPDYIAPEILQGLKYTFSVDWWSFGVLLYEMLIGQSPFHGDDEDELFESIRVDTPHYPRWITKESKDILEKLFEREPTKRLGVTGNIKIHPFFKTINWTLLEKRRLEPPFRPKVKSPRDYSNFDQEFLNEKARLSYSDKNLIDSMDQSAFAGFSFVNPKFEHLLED

[4] = binned A to H, read-out: PKC-theta HTRF pIC50 (binned) (converted)
[5] = read-out: PKC-theta HTRF pIC50 (converted)
[6] = binned A to G, read-out: PKC-theta IL2 pIC50 (binned) (converted)
[7] = read-out: PKC-theta IL2 pIC50 (converted)

SMILES	IC50 [1, 4] [nM]	IC50 [1, 5] [nM]	IC50 [2, 6] [nM]	IC50 [2, 7] [nM]	PKC-theta/PKC-delta selectivity [3]	PKC-theta/PKC-delta selectivity (binned) [3]
CC1C(=O)Nc2nccc(-c3cc(N4CCNCC4)cc(C(F)(F)F)c3)c21 (stereo not drawn) [Example 25]	31.6 to 100	50.1	316 to 1000	501	7	E (a ratio of between 5 and 10)
C[C@@H]1CNC[C@H](C)N1c1cc(C(F)(F)F)cc(-c2ccnc3c2C(C)(C)C(=O)N3)n1 [Example 179]	3.16 to 10	6.31	100 to 316	200	20	D (a ratio of between 10 and 20)
O=c1[nH]c2nccc(-c3cc(Cl)cc(N4CCNCC4)c3)c2[nH]1 [Example 10]	316 to 1000	316	> 1000	2000	1	F (a ratio of between 1 and 5)
CC[C@]1(C)C(=O)Nc2nccc(-c3cc(C(C)(F)F)cc(N4CCCNCC4)n3)c21 (single isomer, unassigned) [Example 205]	3.16 to 10	3.98	31.6 to 100	79.4	13	D (a ratio of between 10 and 20)
CC1(C)C(=O)Nc2nccc(-c3nc(N4CCNCC4)c(F)cc3Cl)c21 [Example 207]	100 to 316	251	> 1000	2000	5	F (a ratio of between 1 and 5)
C[C@@H](O)[C@H]1CN(c2cc(C(F)(F)F)cc(-c3ccnc4c3C(C)(C)C(=O)N4)n2)CCN1 [Example 116]	3.16 to 10	5.01	100 to 316	126	10	D (a ratio of between 10 and 20)
CC[C@@]1(C)C(=O)Nc2nccc(-c3cc(C(F)(F)F)cc(N4CCNC[C@H]4C)n3)c21 (single isomer, unassigned) [Example 198]	3.16 to 10	3.98	31.6 to 100	63.1	30	C (a ratio of between 20 and 30)
CC[C@H]1CN(c2cc(C(F)(F)F)cc(-c3ccnc4c3C(C)(O)C(=O)N4)n2)CCN1 (stereo partly drawn) [Example 71]	1 to 3.16	1.26	31.6 to 100	31.6	12	D (a ratio of between 10 and 20)
CCC1(O)C(=O)Nc2nccc(-c3cc(C(F)(F)F)cc(N4CCNC[C@H]4C)n3)c21 (stereo partly drawn) [Example 131]	3.16 to 10	3.98	31.6 to 100	39.8	6	E (a ratio of between 5 and 10)
CC[C@H]1CN(c2ccc(Cl)c(-c3ccnc4c3[C@](C)(O)C(=O)N4)n2)CCN1 (single isomer, unassigned) [Example 128]	10 to 31.6	25.1	100 to 316	316	5	F (a ratio of between 1 and 5)
CC1(C)C(=O)Nc2nccc(-c3cccc(N4CCNCC4)c3)c21 [Example 23]	100 to 316	100	> 1000	1580	2	F (a ratio of between 1 and 5)
CO[C@]1(C)C(=O)Nc2nccc(-c3cc(C(F)(F)F)cc(N4CCNC[C@H]4C)n3)c21 (single isomer, unassigned) [Example 158]	3.16 to 10	6.31	100 to 316	200	10	E (a ratio of between 5 and 10)
CC(C)[C@H]1CN(c2cccc(-c3ccnc4c3C(C)(C)C(=O)N4)c2)CCN1 [Example 50]	31.6 to 100	79.4	> 1000	1000	2	F (a ratio of between 1 and 5)
CC1(C)C(=O)Nc2nccc(-c3ccnc(N4CCNCC4)c3)c21 [Example 28]	> 1000	1260	> 1000	10000	1	G (a ratio of 0 to 1)
C[C@@H]1CNC[C@@H](C)N1c1cc(C(F)(F)F)cc(-c2ccnc3c2C(C)(C)C(=O)N3)n1 [Example 180]	1 to 3.16	2	316 to 1000	631	28	C (a ratio of between 20 and 30)
CC[C@H]1CN(c2cccc(-c3ccnc4c3C(C)(CC)C(=O)N4)n2)CCN1 (stereo partly drawn) [Example 148]	10 to 31.6	20	100 to 316	158	3	F (a ratio of between 1 and 5)
COc1cc(-c2ccnc3[nH]c(=O)[nH]c23)cc(N2CCNCC2)c1 [Example 9]	> 1000	2000	> 1000	1260	1	G (a ratio of 0 to 1)
CC[C@@]1(C)C(=O)Nc2nccc(-c3cc(C(C)(F)F)cc(N4CCN[C@@H](C)C4)n3)c21 (single isomer, unassigned) [Example 200]	3.16 to 10	5.01	31.6 to 100	79.4	27	C (a ratio of between 20 and 30)
CC1(O)C(=O)Nc2nccc(-c3cc(C(F)(F)F)cc(N4CCNCC4)n3)c21 (stereo not drawn) [Example 80]	3.16 to 10	6.31	31.6 to 100	79.4	12	D (a ratio of between 10 and 20)
C[C@H]1CNCCN1c1cc(-c2ccnc3c2C(C)(C)C(=O)N3)ccn1 [Example 31]	316 to 1000	501	> 1000	6310	1	F (a ratio of between 1 and 5)
CC1(C)C(=O)Nc2nccc(-c3cc(C(F)(F)F)cc(N4CCNCC4C(F)F)n3)c21 (stereo not drawn) [Example 160]	1 to 3.16	3.16	31.6 to 100	100	9	E (a ratio of between 5 and 10)
C[C@@]1(O)C(=O)Nc2nccc(-c3cc(C(F)(F)F)cc(N4CC5CC(C4)N5)n3)c21 (single isomer, unassigned) [Example 149]	10 to 31.6	25.1	316 to 1000	398	15	D (a ratio of between 10 and 20)
C[C@@H]1CNCCN1c1cc(C(F)(F)F)cc(-c2c(F)cnc3c2C(C)(C)C(=O)N3)n1 [Example 156]	10 to 31.6	12.6	100 to 316	126	12	D (a ratio of between 10 and 20)
